Measurements as given in patent US8466089B2, “Pyrazole compounds, process for their production and herbicides containing them” (Ishihara Sangyo Kaisha, Ltd., priority 2008, dated 2013).

How the values were obtained:
Assay type in all cases: in vivo
[1] = test system: Japanese bulrush (Scirpus juncoides); experiment: Test Example 3, paddy field pot, application to irrigated water; conditions: Schoenoplectiella juncoides, applied at 0.5 leaf stage, 13th to 17th day after application, read-out: Growth inhibition rate (%) Japanese bulrush
Summary of the method: (§1)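 Weeds were sown or planted in flooded paddy-soil pots and treated in the water at 0.5-leaf or primary-leaf stage. Rice (Nihonbare), transplanted at two-leaf stage 3 cm deep, was treated on day 4. Diluted wettable powder or emulsifiable concentrate was used, and growth inhibition (0–100%) was scored visually at 13–17 days for weeds and 20–23 days for rice.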

[2] = test system: Japanese ribbon waparo (Sagittaria pygmaea); experiment: as above; conditions: applied at primary leaf stage, 13th to 17th day after application, read-out: Growth inhibition rate (%) Japanese ribbon waparo
Summary of the method: as §1

[3] = test system: barnyardgrass (Echinochloa oryzicola vasing.); experiment: as above; conditions: applied at 0.5 leaf stage, 13th to 17th day after application, read-out: Growth inhibition rate (%) barnyard grass
Summary of the method: as §1

wheat (Triticum spp.) = experiment: Test Example 2, soil application on the day after sowing; conditions: 21st to 22nd day after application, visual, read-out: Growth inhibition rate (%) Wheat
Summary of the method: (§2)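 Pre-emergence soil spray, day after sowing; WP/EC diluted to 500 L/ha water; upland soil, 1/170,000 ha pot. Visual growth inhibition read 21–22 d post-application, 0–100% scale (100 = complete kill).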

[4] = test system: green foxtail (Setaria viridis L.); experiment: as above; conditions: 21st to 22nd day after application, visual, read-out: Growth inhibition rate (%) Green foxtail
Summary of the method: as §2

[5] = test system: barnyardgrass (Echinochloa crus-galli L.); experiment: as above; conditions: 21st to 22nd day after application, visual, read-out: Growth inhibition rate (%) Barnyardgrass
Summary of the method: as §2

[6] = test system: prickly sida (Sida spinosa L.); experiment: as above; conditions: 21st to 22nd day after application, visual, read-out: Growth inhibition rate (%) Prickly sida
Summary of the method: as §2

corn (Zea mays L.) = experiment: as above; conditions: 21st to 22nd day after application, visual, read-out: Growth inhibition rate (%) Corn
Summary of the method: as §2

rice (Oryza sativa L.) = experiment: as above; conditions: 21st to 22nd day after application, visual, read-out: Growth inhibition rate (%) Rice
Summary of the method: as §2

[7] = test system: crabgrass (Digitaria sanquinalis L.); experiment: as above; conditions: 21st to 22nd day after application, visual, read-out: Growth inhibition rate (%) Crabgrass
Summary of the method: as §2

[8] = test system: velvetleaf (Abutilon theophrasti MEDIC.); experiment: as above; conditions: 21st to 22nd day after application, visual, read-out: Growth inhibition rate (%) Velvetleaf
Summary of the method: as §2

[9] = test system: soybean (Glycine max Merr.); experiment: as above; conditions: 21st to 22nd day after application, visual, read-out: Growth inhibition rate (%) Soybean
Summary of the method: as §2

[10] = test system: redroot pigweed (Amaranthus retroflexus L.); experiment: as above; conditions: 21st to 22nd day after application, visual, read-out: Growth inhibition rate (%) Redroot pigweed
Summary of the method: as §2

[11] = test system: rice (Oryza sativa L.) (var.: Nihonbare); experiment: Test Example 3, paddy field pot, transplanted rice; conditions: applied 4th day after transplantation, 20th to 23rd day after application, read-out: Growth inhibition rate (%) Rice
Summary of the method: as §1

Row | Structure (SMILES) | inhibition at 63 g/ha [1] | inhibition at 63 g/ha [2] | inhibition at 63 g/ha [3] | inhibition at 250 g/ha (wheat (Triticum spp.)) | inhibition at 250 g/ha [4] | inhibition at 250 g/ha [5] | inhibition at 250 g/ha [6] | inhibition at 250 g/ha (corn (Zea mays L.)) | inhibition at 250 g/ha (rice (Oryza sativa L.)) | inhibition at 250 g/ha [7] | inhibition at 250 g/ha [8] | inhibition at 250 g/ha [9] | inhibition at 250 g/ha [10] | inhibition at 63 g/ha [11]
1 | Cc1c(C(=O)c2cnn(C)c2O)ccc(S(C)(=O)=O)c1OCCC(C)C [Compound No. 5-1, (5-Hydroxy-1-methyl-1H-pyrazol-4-yl)(3-(2-isopropylethoxy)-2-methyl-4-(methylsulfonyl)phenyl)ketone] | 20% | 95% | 60% | 20% | 95% | 98% | 98% | 10% | 98% | 98% | 100% | 0% | 100% | 30%
2 | CCOC(=O)OC(C)Oc1c(C(=O)c2ccc(S(C)(=O)=O)c(OCCOC(C)C)c2C)cnn1C (stereo not drawn) [Compound No. 1-5, Ethyl 1-(4-(3-(2-isopropoxyethoxy)-2-methyl-4-(methylsulfonyl)benzoyl)-1-methyl-1H-pyrazol-5-yloxy)ethyl carbonate] | 20% | 90% | 100% | 0% | 100% | 100% | 90% | 10% | 80% | 95% | 100% | 10% | 100% | 30%
3 | CCn1ncc(C(=O)c2ccc(S(C)(=O)=O)c(OCCOC)c2C)c1OC(C)OC(=O)OC (stereo not drawn) [Compound No. 2-1, 1-(1-Ethyl-4-(3-(2-methoxyethoxy)-2-methyl-4-(methylsulfonyl)benzoyl)-1H-pyrazol-5-yloxy)ethyl methyl carbonate] | 80% | 80% | 100% | 0% | 100% | 95% | 90% | 0% | 98% | 100% | 100% | 0% | 100% | 20%
